# Source: PMC7381729, “A new class of PentixaFor- and PentixaTher-based theranostic agents with enhanced CXCR4-targeting efficiency” (Theranostics, 2020)
# Like-named read-outs stand apart in the source and are kept apart here. Where a SMILES comes first, the peptide text is derived from it. Side-chain parts run from the residue outwards. [ ]: non-standard residue; d: D form. The star is where a group is joined. DOTA = O=C(O)CN1CCN(CC(=O)O)CCN(CC(=O)*)CCN(CC(=O)O)CC1; dTyr(3-I) = N[C@H](Cc1ccc(O)c(I)c1)C(=O)O; 2Nal = N[C@@H](Cc1ccc2ccccc2c1)C(=O)O; dNMeOrn = CN[C@H](CCCN)C(=O)O; 4Abz = Nc1ccc(C(=O)O)cc1
# How the values were obtained:
# human CXCR4 (hCXCR4) = molecular target: T1, human CXCR4 (hCXCR4) (Homo sapiens, UniProt P61073); assay: Competition binding to hCXCR4, Jurkat cells, [125I]FC-131 as radioligand; conditions: Jurkat cells 400.000 cells/sample, means ± SD of min. three separate experiments
# T1 construct: hCXCR4-expressing Jurkat human T-cell leukemia cells; endogenous in cells; host or cells: Jurkat human T-cell leukemia cells (whole cells)
# T1 sequence (P61073 whole entry): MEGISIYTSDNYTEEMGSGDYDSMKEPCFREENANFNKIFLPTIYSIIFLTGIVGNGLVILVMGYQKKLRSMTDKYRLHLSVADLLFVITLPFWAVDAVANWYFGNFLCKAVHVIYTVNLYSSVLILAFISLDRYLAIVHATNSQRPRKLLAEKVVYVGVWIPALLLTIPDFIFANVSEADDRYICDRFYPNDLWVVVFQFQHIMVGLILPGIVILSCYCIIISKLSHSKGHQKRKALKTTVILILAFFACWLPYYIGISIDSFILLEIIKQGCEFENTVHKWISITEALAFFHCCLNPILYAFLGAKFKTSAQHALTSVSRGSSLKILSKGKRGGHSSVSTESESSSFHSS
# Description: Experiments were performed in triplicate with n=3 per concentration in each experiment. IC50 values were calculated using GraphPad Prism 6.01 (Graph Pad Software, San Diego, USA).
# Figure 2 Binding affinities (IC50 in nM) of the respective ^natGa-, ^natLu-, ^natY- and ^natBi-complexes of PentixaFor (entry 1), PentixaTher (entry 2) and a series of CPCR4-(blue) and iodoCPCR4-(black) derived analogs with modified linker structure (entries 3-14) to human CXCR4 (hCXCR4). […] Each experiment was performed in triplicate, and results are means ± SD from a minimum of three separate experiments. TEXT PRINTED IN THE PICTURE: 1: ^natGa-complex IC50 [nM]: 24.8 ± 2.5; ^natLu-complex IC50 [nM]: 41 ± 12; ^natY-complex IC50 [nM]: 40 ± 27 | 2: ^natGa-complex IC50 [nM]: 6.1 ± 1.5; ^natLu-complex IC50 [nM]: 14.6 ± 1.0; ^natY-complex IC50 [nM]: 20.4 ± 0.3; ^natBi-complex IC50 [nM]: 24.4 ± 3.7 | 3: ^natGa-complex IC50 [nM]: 282 ± 90; ^natLu-complex IC50 [nM]: 12.5 ± 3.2; ^natY-complex IC50 [nM]: 216 ± 33; ^natBi-complex IC50 [nM]: 27 ± 14 | 4: ^natGa-complex IC50 [nM]: 14.4 ± 0.3; ^natLu-complex IC50 [nM]: 28 ± 9; ^natY-complex IC50 [nM]: 83 ± 30 | 5: ^natLu-complex IC50 [nM]: 106 ± 10 | 6: ^natGa-complex IC50 [nM]: 7.9 ± 1.1; ^natLu-complex IC50 [nM]: 5.9 ± 0.3; ^natY-complex IC50 [nM]: 6.7 ± 1.2; ^natBi-complex IC50 [nM]: 14.5 ± 0.2 | 7: ^natGa-complex IC50 [nM]: 47 ± 8; ^natLu-complex IC50 [nM]: 39 ± 1; ^natY-complex IC50 [nM]: 43 ± 2 | 8: ^natGa-complex IC50 [nM]: 3.6 ± 0.7; ^natLu-complex IC50 [nM]: 3.5 ± 0.3; ^natY-complex IC50 [nM]: 4.1 ± 1.3; ^natBi-complex IC50 [nM]: 3.5 ± 0.4 | 9: ^natGa-complex IC50 [nM]: 8.9 ± 3.8; ^natLu-complex IC50 [nM]: 8.0 ± 3.1; ^natY-complex IC50 [nM]: 6.3 ± 2.5 | 10: ^natGa-complex IC50 [nM]: 2.4 ± 0.1; ^natLu-complex IC50 [nM]: 3.6 ± 1.1; ^natY-complex IC50 [nM]: 2.4 ± 0.2; ^natBi-complex IC50 [nM]: 38 ± 25 | 11: ^natGa-complex IC50 [nM]: 9.7 ± 2.8; ^natLu-complex IC50 [nM]: 5.4 ± 1.6; ^natY-complex IC50 [nM]: 8.7 ± 2.9 | 12: ^natGa-complex IC50 [nM]: 1.4 ± 0.2; ^natLu-complex IC50 [nM]: 2.1 ± 0.3; ^natY-complex IC50 [nM]: 2.1 ± 0.3; ^natBi-complex IC50 [nM]: 2.9 ± 0.1 | 13: ^natGa-complex IC50 [nM]: 0.4 ± 0.1; ^natLu-complex IC50 [nM]: 1.5 ± 0.1; ^natY-complex IC50 [nM]: 1.5 ± 0.1 | 14: ^natGa-complex IC50 [nM]: 2.6 ± 1.0; ^natLu-complex IC50 [nM]: 1.7 ± 0.6; ^natY-complex IC50 [nM]: 1.6 ± 0.5; ^natBi-complex IC50 [nM]: 1.8 ± 0.8
# [1] = Biodistribution in Daudi xenograft bearing mice; type: in vivo, mouse; conditions: female, CB-17 SCID, mouse, iv, total radioactivity, means ± SD; for tissue uptake at 6 h: 6h p.i.; for tissue uptake at 48 h / tissue to tissue ratio at 48 h: 48h p.i.; for tissue to tissue ratio at 48 h: n=4-5 animals
# Description: The biodistribution of selected compounds was investigated in Daudi (human B-cell lymphoma) xenograft bearing female CB-17 SCID mice (6-8 weeks, Charles River, Sulzfeld, Germany), [29]. All animal experiments were performed in accordance with current animal welfare regulations in Germany (approval #55.2-1-54-2532-71-13).
# Animals (n=4-5 per group) were injected intravenously with 5-10 MBq (0.08-0.11 nmol peptide per mouse) of the respective ^68Ga- and^ 177Lu-labeled CXCR4 ligands in PBS (100 µL) into the tail vein under isoflurane anesthesia. CXCR4-specificity of binding was determined by coinjection of 50 µg AMD3100 per mouse. The animals were sacrificed 1, 6 and 48h post injection (p.i.), and the organs of interest were dissected. The radioactivity was measured in weighted tissue samples using a γ-counter. Data are expressed in % ID/g tissue (mean ± SD).
# [2] = natGa-complex, read-out: ^natGa-complex IC50 to hCXCR4
# [3] = natLu-complex, read-out: ^natLu-complex IC50 to hCXCR4
# [4] = natY-complex, read-out: ^natY-complex IC50 to hCXCR4
# [5] = adrenals, i.v., n=4-5, read-out: Biodistribution adrenals
# [6] = blood, i.v., n=4-5, read-out: Biodistribution blood
# [7] = colon, i.v., n=4-5, read-out: Biodistribution colon
# [8] = femur, i.v., n=4-5, read-out: Biodistribution femur
# [9] = heart, i.v., n=4-5, read-out: Biodistribution heart
# [10] = kidney, i.v., n=4-5, read-out: Biodistribution kidney
# [11] = liver, i.v., n=4-5, read-out: Biodistribution liver
# [12] = lung, i.v., n=4-5, read-out: Biodistribution lung
# [13] = muscle, i.v., n=4-5, read-out: Biodistribution muscle
# [14] = pancreas, i.v., n=4-5, read-out: Biodistribution pancreas
# [15] = small intestine, i.v., n=4-5, read-out: Biodistribution small intestine
# [16] = spleen, i.v., n=4-5, read-out: Biodistribution spleen
# [17] = stomach, i.v., n=4-5, read-out: Biodistribution stomach
# [18] = tumor (Daudi xenograft), i.v., n=4-5, read-out: Biodistribution tumor (Daudi xenograft)
molecule,measurement,setting,value
DOTA-r-G-ABA-CPCR4 [entry 11],IC50,human CXCR4 (hCXCR4); [2],9.7 ± 2.8 nM
same,IC50,human CXCR4 (hCXCR4); [3],5.4 ± 1.6 nM
same,IC50,human CXCR4 (hCXCR4); [4],8.7 ± 2.9 nM
DOTA-G-ABA-iodoCPCR4 (head to tail) [entry 6],IC50,"human CXCR4 (hCXCR4); natBi-complex, read-out: ^natBi-complex IC50 to hCXCR4",14.5 ± 0.2 nM
same,IC50,human CXCR4 (hCXCR4); [2],7.9 ± 1.1 nM
same,IC50,human CXCR4 (hCXCR4); [3],5.9 ± 0.3 nM
same,IC50,human CXCR4 (hCXCR4); [4],6.7 ± 1.2 nM
DOTA-d-ABA-iodoCPCR4 (head to tail) [entry 5],IC50,human CXCR4 (hCXCR4); [3],106 ± 10 nM
"C[C@@H](NC(=O)[C@@H](CCCNC(=N)N)NC(=O)CN1CCN(CC(=O)O)CCN(CC(=O)O)CCN(CC(=O)O)CC1)C(=O)Nc1ccc(C(=O)NCCC[C@@H]2C(=O)N[C@@H](CCCNC(=N)N)C(=O)N[C@@H](Cc3ccc4ccccc4c3)C(=O)NCC(=O)N[C@H](Cc3ccc(O)c(I)c3)C(=O)N2C)cc1 [[^177Lu]DOTA-r-a-ABA-iodoCPCR4, metal not drawn] (cyclo([2Nal]G[dTyr(3-I)][dNMeOrn]([4Abz-dA-dR-DOTA])R))",tissue uptake at 6 h,[1]; [5],0.68 ± 0.21 %ID/g
same,tissue uptake at 48 h,[1]; [5],0.6 ± 0.12 %ID/g
same,tissue uptake at 6 h,[1]; [6],0.17 ± 0.09 %ID/g
same,tissue uptake at 48 h,[1]; [6],0.03 ± 0.01 %ID/g
same,tissue uptake at 1 h,"[1]; brain, 1h p.i., tracer only, i.v., γ-counter, n=4-5, read-out: Biodistribution brain",0.08 ± 0.01 %ID/g
same,tissue uptake at 6 h,[1]; [7],0.49 ± 0.2 %ID/g
same,tissue uptake at 48 h,[1]; [7],0.43 ± 0.3 %ID/g
same,tissue uptake at 6 h,[1]; [8],0.56 ± 0.23 %ID/g
same,tissue uptake at 48 h,[1]; [8],0.34 ± 0.08 %ID/g
same,tissue uptake at 6 h,[1]; [9],0.28 ± 0.05 %ID/g
same,tissue uptake at 48 h,[1]; [9],0.19 ± 0.02 %ID/g
same,tissue uptake at 6 h,[1]; [10],3.2 ± 0.45 %ID/g
same,tissue uptake at 48 h,[1]; [10],2.58 ± 0.69 %ID/g
same,tissue uptake at 6 h,[1]; [11],17.1 ± 3.09 %ID/g
same,tissue uptake at 48 h,[1]; [11],14.6 ± 2 %ID/g
same,tissue uptake at 6 h,[1]; [12],1.07 ± 0.26 %ID/g
same,tissue uptake at 48 h,[1]; [12],0.57 ± 0.04 %ID/g
same,tissue uptake at 6 h,[1]; [13],0.06 ± 0.01 %ID/g
same,tissue uptake at 48 h,[1]; [13],0.04 %ID/g
same,tissue uptake at 6 h,[1]; [14],0.11 ± 0.02 %ID/g
same,tissue uptake at 48 h,[1]; [14],0.09 ± 0.01 %ID/g
same,tissue uptake at 6 h,[1]; [15],0.24 ± 0.06 %ID/g
same,tissue uptake at 48 h,[1]; [15],0.16 ± 0.06 %ID/g
same,tissue uptake at 6 h,[1]; [16],2.95 ± 0.75 %ID/g
same,tissue uptake at 48 h,[1]; [16],2.72 ± 0.5 %ID/g
same,tissue uptake at 6 h,[1]; [17],0.25 ± 0.09 %ID/g
same,tissue uptake at 48 h,[1]; [17],0.14 ± 0.02 %ID/g
same,tissue uptake at 6 h,[1]; [18],12.5 ± 2.56 %ID/g
same,tissue uptake at 48 h,[1]; [18],8.11 ± 0.96 %ID/g
same,tissue to tissue ratio at 48 h,"[1]; tumor / blood, read-out: Tumor/organ ratio t/blood",320 ± 104
same,tissue to tissue ratio at 48 h,"[1]; tumor / colon, read-out: Tumor/organ ratio t/colon",19 ± 13
same,tissue to tissue ratio at 48 h,"[1]; tumor / heart, read-out: Tumor/organ ratio t/heart",42 ± 7
same,tissue to tissue ratio at 48 h,"[1]; tumor / kidney, read-out: Tumor/organ ratio t/kidney",3.1 ± 0.9
same,tissue to tissue ratio at 48 h,"[1]; tumor / liver, read-out: Tumor/organ ratio t/liver",0.6 ± 0.1
same,tissue to tissue ratio at 48 h,"[1]; tumor / lung, read-out: Tumor/organ ratio t/lung",14 ± 2
same,tissue to tissue ratio at 48 h,"[1]; tumor / muscle, read-out: Tumor/organ ratio t/muscle",226 ± 36
same,tissue to tissue ratio at 48 h,"[1]; tumor / small intestine, read-out: Tumor/organ ratio t/small intestine",50 ± 20
same,tissue to tissue ratio at 48 h,"[1]; tumor / spleen, read-out: Tumor/organ ratio t/spleen",3 ± 0.7
same,tissue to tissue ratio at 48 h,"[1]; tumor / stomach, read-out: Tumor/organ ratio t/stomach",58 ± 12
